Values quoted from earlier work, collected in US20150148304A1, “Novel Peptides and Analogs for Use in the Treatment of Macrophage Activation Syndrome” (Soligenix, Inc., priority 2013, published 2015).

Key:
[1] = biological target: T1, TLR9 (Homo sapiens, UniProt Q9NR96); conditions: average; US 2011/0136845 Trawick et al.; cited from earlier work
T1 sequence (Q9NR96 26-1032): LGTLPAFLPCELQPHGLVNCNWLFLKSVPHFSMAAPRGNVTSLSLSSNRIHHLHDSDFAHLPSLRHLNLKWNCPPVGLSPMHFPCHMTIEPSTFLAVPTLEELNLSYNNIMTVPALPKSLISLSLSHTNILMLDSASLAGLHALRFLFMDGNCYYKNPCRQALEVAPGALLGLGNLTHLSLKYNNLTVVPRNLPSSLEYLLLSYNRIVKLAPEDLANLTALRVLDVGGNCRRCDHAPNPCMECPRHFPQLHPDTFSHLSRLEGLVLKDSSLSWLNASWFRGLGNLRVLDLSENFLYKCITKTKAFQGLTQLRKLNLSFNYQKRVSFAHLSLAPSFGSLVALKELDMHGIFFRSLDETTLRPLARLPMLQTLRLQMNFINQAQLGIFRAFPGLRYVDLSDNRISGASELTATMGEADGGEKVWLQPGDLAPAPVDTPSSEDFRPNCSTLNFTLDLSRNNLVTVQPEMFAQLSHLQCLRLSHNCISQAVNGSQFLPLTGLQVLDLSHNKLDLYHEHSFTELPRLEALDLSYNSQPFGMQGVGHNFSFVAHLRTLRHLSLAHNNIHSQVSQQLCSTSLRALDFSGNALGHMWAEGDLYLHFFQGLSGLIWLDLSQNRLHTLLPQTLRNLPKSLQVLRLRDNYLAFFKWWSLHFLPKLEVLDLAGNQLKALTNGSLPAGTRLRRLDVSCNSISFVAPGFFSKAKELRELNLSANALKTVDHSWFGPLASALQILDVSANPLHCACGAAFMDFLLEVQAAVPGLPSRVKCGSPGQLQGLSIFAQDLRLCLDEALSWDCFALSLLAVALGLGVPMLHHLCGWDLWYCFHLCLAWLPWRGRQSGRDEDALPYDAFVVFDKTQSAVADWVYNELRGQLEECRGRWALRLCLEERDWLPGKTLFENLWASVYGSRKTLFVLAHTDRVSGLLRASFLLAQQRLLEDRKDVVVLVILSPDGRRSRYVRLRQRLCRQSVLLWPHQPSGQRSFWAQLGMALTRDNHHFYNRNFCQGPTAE

[2] = cited from earlier work
[3] = system: macrophage activation syndrome; conditions: Ravelli et al. 2001, cited from earlier work

O=C1CC[C@]2(O)[C@@H]3Cc4ccc(O)c5c4[C@]2(CCN3CC2CC2)[C@@H]1O5 [(+)-Naltrexone]
inhibition of TLR9 [1]: 51%

O=C1CC[C@@]2(O)[C@H]3Cc4ccc(O)c5c4[C@@]2(CCN3CC2CC2)[C@H]1O5 [Naltrexone]
time of peak plasma levels after dosing ([2]; oral administration): one
urinary excretion of unchanged Naltrexone ([2]; share of the elimination pathway): less than 2%

cyclosporin A [CyA]
efficacy in severe or corticosteroid-resistant macrophage activation syndrome ([3]; patients, Mouy et al. 1996): effective
time to disappearance of fever and improvement of laboratory abnormalities ([3]; some patients): 12 to 24 h
